pIC50: −log10 of the molar value.
Experiments:
DNMT1 [1] = target: T1, DNMT1 (Homo sapiens, UniProt P26358); test: biochemical DNMT activity quantification kit (Abcam), three […] pure preparations, n = […]
DNMT1 [2] = target: T1, DNMT1; test: scintillation proximity methylation assay (SPA) screen with purified DNMT1; IC50 in Supplementary Figure S1A; type: biochemical; parameters: full-length recombinant human DNMT1

T1 sequence (P26358 whole entry): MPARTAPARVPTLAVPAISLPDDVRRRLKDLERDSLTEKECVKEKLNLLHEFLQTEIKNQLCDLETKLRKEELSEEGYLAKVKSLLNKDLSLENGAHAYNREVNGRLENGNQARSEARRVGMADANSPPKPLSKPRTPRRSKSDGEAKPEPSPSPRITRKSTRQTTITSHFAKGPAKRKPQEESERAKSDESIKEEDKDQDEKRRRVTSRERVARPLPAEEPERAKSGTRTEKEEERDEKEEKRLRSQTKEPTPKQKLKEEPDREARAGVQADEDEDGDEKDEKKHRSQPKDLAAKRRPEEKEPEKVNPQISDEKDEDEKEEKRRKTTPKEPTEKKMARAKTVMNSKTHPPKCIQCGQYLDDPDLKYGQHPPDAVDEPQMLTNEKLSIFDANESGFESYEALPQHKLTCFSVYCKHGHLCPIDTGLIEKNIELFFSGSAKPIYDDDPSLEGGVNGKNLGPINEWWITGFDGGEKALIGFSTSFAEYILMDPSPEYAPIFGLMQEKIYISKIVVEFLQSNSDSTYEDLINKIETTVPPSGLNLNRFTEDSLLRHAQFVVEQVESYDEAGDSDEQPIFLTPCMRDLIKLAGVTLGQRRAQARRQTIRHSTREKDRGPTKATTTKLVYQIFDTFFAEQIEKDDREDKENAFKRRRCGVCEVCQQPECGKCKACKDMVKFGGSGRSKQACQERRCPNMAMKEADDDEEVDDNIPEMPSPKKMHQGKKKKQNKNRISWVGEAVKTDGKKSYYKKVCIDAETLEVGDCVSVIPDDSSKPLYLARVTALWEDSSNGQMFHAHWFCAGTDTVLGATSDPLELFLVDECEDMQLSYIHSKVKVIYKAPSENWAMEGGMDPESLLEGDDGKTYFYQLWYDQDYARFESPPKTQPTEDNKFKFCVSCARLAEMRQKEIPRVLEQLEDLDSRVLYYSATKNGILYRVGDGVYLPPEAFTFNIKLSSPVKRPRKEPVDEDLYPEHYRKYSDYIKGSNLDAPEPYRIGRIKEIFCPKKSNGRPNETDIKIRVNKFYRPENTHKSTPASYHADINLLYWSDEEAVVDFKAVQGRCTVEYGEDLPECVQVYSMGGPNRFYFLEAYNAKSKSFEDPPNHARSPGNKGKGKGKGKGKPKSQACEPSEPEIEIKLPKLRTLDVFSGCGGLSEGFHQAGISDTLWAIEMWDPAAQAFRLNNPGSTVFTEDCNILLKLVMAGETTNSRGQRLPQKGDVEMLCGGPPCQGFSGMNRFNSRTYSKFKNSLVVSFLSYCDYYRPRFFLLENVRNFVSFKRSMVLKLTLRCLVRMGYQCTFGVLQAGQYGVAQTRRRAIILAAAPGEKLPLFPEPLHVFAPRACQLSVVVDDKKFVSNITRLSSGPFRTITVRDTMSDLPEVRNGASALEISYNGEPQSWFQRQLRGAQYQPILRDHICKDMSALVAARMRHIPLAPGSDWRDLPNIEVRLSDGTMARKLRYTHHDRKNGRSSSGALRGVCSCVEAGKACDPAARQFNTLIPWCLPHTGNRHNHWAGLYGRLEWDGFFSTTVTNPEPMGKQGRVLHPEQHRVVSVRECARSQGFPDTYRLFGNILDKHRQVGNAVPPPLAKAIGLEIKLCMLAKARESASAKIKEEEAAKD

| Compound | biochemical DNMT activity quantification kit (Abcam), three >95% pure preparatio (DNMT1 [1]) | pIC50 (DNMT1 [2]) |
| --- | --- | --- |
| O=C1c2c(O)cc(O)cc2O[C@H](c2cc(O)c(O)c(O)c2)[C@H]1O [DHM, 3,3′,4′,5,5’,7-hexahydroxy-2,3-dihydroflavanonol] | DNMT1 inhibitory activity for DHM in the similar concentration range like myricetin (Figure 1D; Supplementary Figure S1B) | – |
| O=c1c(O)c(-c2cc(O)c(O)c(O)c2)oc2cc(O)cc(O)c12 [Myr, myricetin] | – | 4.36 |

From PMC10944877, “Identification of dihydromyricetin as a natural DNA methylation inhibitor with rejuvenating activity in human skin” (Frontiers in Aging, 2024)
